{
  "source": "patent US10919941B2",
  "about": "“Functional lipid constructs” (KODE BIOTECH LIMITED, priority 2007, dated 2021)",
  "key": {"[1]": {"test_system": "RL95-2 cells", "details": "for Mean Fluorescence: T = 24 hr, Serum-containing"}, "[2]": {"test_system": "murine embryos", "experiment": "Avidin-Alexafluor fluorescence of murine embryos modified with biotin-lipid construct", "assay_type": "cell-based", "experimental": "Murine embryos (morula/early blastocyst stage, 3.5 day) were incubated in 50 microlitre microdrops in Blastassist™ culture media.\nThe zona pellucida of the embryos was removed by treatment with 0.5% pronase (4 minute incubation) and washing 3 times in embryo handling media prior to introduction into the microdrops. Each microdrop was equilibrated 5% CO2 at 37° C. overnight prior to introduction of the embryos.\nMicrodrops containing embryos and BioG were incubated for 40 minutes in 5% CO2 at 37° C.\nFollowing incubation each group of embryos was washed 3 times in handling media and transferred to 50 microlitre microdrops containing 2 mg/ml, Avidin-AF microdrops for fluorescent labelling. The microdrops containing transferred embryos were incubated at 37° C. for 30 minutes in the dark.\nEach group of embryos was then washed 3 times in handling media and mounted on a glass microscope slide for viewing. Embryos were viewed under a fluorescent microscope at 488 nm. The intensity of the fluorescence was recorded using a scoring system of 0 (no fluorescence) to 4 (maximum fluorescence)."}, "[3]": {"test_system": "spermatozoa", "experimental": "Spermatozoa were washed and isolated by layering 1.1 mL of fresh semen over a gradient of SpermGrad 125 (Vitrolife 10099; 2 mL of 40% solution over 2 mL of 80% solution in a 15 mL round bottom tube) and centrifuging at 500×g for 20 min.\nThe bottom layer of the gradient (c. 0.7 mL was transferred to 4 mL round bottom tubes and c. 2 mL flushing (handling) media (Medicult 10840125A) added. The tube was centrifuged at 300×g for 10 min and the spermatozoa washed two more times (mixing by tube inversion).\nSamples of washed spermatozoa were incubated overnight at 37° C. in a 5% CO2 atmosphere.\nOpen tubes were incubated at 37° C. in a 5% CO2 atmosphere prior to addition of c. 70 μL spermatozoa (c. 25×10^6/mL) to each tube and incubation for 120 min (A), 60 min (B), 30 min (C), 10 min […] and 120 min (E).\nFollowing incubation a couple of drops of flushing media were added and the tubes centrifuged at 300×g for 5 min. The spermatozoa were washed two more times with flushing media and before being re-suspended in culture media to a final volume of 100 μL.\nStreptavidin beads at a concentration of c. 6.25×10^6/100 μL were diluted 35 times in BSA plus flushing media to provide a ratio of 0.1 beads/spermatozoa when mixed in equal volume with a diluted suspension of the modified spermatozoa.\nA volume of 5 μL of a diluted suspension of the modified spermatozoa was mixed on a slide with 5 μL of a diluted suspension of streptavidin beads and covered with a coverslip.\nThe mixture was observed under a microscope at 400× magnification.\nThe assessment of the attachment of streptavidin beads to modified spermatozoa is recorded in Table 27."}, "[4]": {"test_system": "A group red blood cells", "details": "construct 1 mg/mL, 37° C. 2 hours; wells washed 3× with PBS", "method": "A volume of 60 μL washed A group red blood cells (RBCs) was modified by incubation with 20 μL of the dilution of the construct at 37° C. for 2 hours.\nThe modified RBCs were washed twice in PBS and once in Celpresol™ as described above. A 2% cell suspension of washed cells (modified or control) was prepared in Celpresol™ and cell concentration (150×10^6/mL) determined using a haemocytometer. Similarly the concentration of a suspension streptavidin beads (134×10^6/mL) was determined.\nA volume of 50 μL of a suspension of RBCs was added to provide a bead to RBC ratio of c. 1:1 and incubated at room temperature for 1 hour to allow RBCs to settle.\nThe wells were washed 3× with PBS, aspirating the washing solution with a pipette."}, "[5]": {"test_system": "red blood cells", "experiment": "Avidin-Alexafluor fluorescence of RBCs modified with biotin-lipid construct", "assay_type": "cell-based", "design": "key: 0 (no fluorescence observed); 4 (maximum fluorescence observed)", "details": "for fluorescence score (Avidin-AF), RBCs: Day 0", "experimental": "A stock solution of Avidin-Alexafluor (Avidin-AF) was prepared in sterile phosphate buffered saline (PBS) at a concentration of 2 mg/mL. A stock solution of biotinylated gangliocide (BioG) was prepared in sterile PBS at a concentration of 5 mg/mL.\nIncubations were performed in a plastic ependorf tube of nominal volume 1.5 mL for 2 hours at 37° C. in a water bath. O group RBCs were incubated with a solution of BioG at a concentration of 0.33 mg/mL as a positive control.\nIncubated RBCs were washed 3 times with PBS in a mini centrifuge. Fluorescent labeling of the washed, modified RBCs was performed by adding 10 μL of a solution of Avidin-AF at a concentration of 0.1 mg/mL. The RBCs were then incubated in the dark for 1 hour at 37° C. in a water bath and washed 3 times with PBS.\n85% solution of the washed, fluorescent labeled RBCs were viewed on a slide with cover slip under a fluorescent microscope at 488 nm and photographic exposure of 1.903 (FIG. 6). The intensity of the fluorescent signal was recorded using a scoring system of 0 (no fluorescence observed) to 4 (maximum fluorescence observed).\nRetention of the construct by the RBCs was assessed by incubation with Avidin-AF as before."}, "[6]": {"test_system": "group 0 RBCs", "details": "construct 0.5 mg/ml", "method": "Unmodified group A RBCs were used as a second population of cells.\nBoth populations of cells were incubated for 37° C. for 2 hrs in a water bath and then washed 2× in PBS and 1× in Celpresol using an Immufuge II (low, 1 min). The concentration of cells in each suspension was made up to 2% by adding 1.5 mL.\nThe suspensions of RBCs were mixed with avidinylated magnetic Dynabeads at an approximate ratio of RBC:bead of 1 and incubated for 10 min at room temperature on a gyrator. Samples of the first and second populations of RBCs were then mixed in equal volumes (35 μl each) in an ependorf tube for two minutes.\nThe contents of the ependorf were transferred to the well of a 96-well plate and a magnet was applied to the underside of the well for 1 minute. The supernatant was carefully removed with the magnet applied and without disruption of the beads. The blood grouping of the cells of the supernatants were then assessed by applying 30 μl of supernatant and 30 μl anti-A antibody to a Dynamed™ gel card. Cards were spun for 10 min in a centrifuge."}, "[7]": {"test_system": "RL95-2 monolayers", "experimental": "The modification of monolayers of the cell line RL95-2 (established from a human endometrial adenocarcinoma (ATCC HTB CRL 1671)) in serum-free and serum-containing media was evaluated.\nD-MEM/F12 (Gibco 11320-033, Invitrogen NZ) containing 1% penicillin/streptomycin (Gibco 15140-122, Invitrogen NZ) was used as a serum-free medium. D-MEM/F12 10% FBS (Gibco 10091-130, Invitrogen NZ) containing 1% penicillin/streptomycin and […] insulin (Gibco 12585-014, Invitrogen NZ) was used as a serum-containing medium.\nA suspension of the cell line RL95-2 was diluted in pre-warmed serum-containing media to the required concentration e.g. 4×10^5 cells/mL. A 25 μL volume of the suspension was used to seed the required wells in a Terasaki tray so that each treatment was performed in duplicate. The plates were incubated overnight in a 5% CO2, 37° C. incubator until the monolayer was approximately 60% confluent.\nTrays were incubated at 37° C., 5% CO2 for 120 min.\nThe cells were then washed and a 12 μl volume of a 0.1 mg/mL solution of Avidin Alexa Fluor® 488 added. The cells were then incubated at room temperature for a further 30 minutes in the dark.\nThe monolayers were finally washed 3 times with PBS, the trays inverted and photographed using an Olympus BX51 fluorescent microscope at 200× magnification, exposure time 475 ms (FIG. 12)."}, "[8]": {"test_system": "RL95-2 monolayers", "remark": "listed apart in the source"}},
  "note": "Like-named read-outs stand apart in the source and are kept apart here.",
  "data": [
    {"substance": "Biotin-CMG(2)-Ad-DOPE", "values": [
      {"measurement": "Mean Fluorescence", "setting": "[1]; 20 μg/mL", "result": 0},
      {"measurement": "Mean Fluorescence", "setting": "[1]; 100 μg/mL", "result": 0},
      {"measurement": "fluorescence 24 hr post-insertion, serum-free media", "setting": "[1]; RL95-2 cells, reduced from T=0", "result": "Fluorescence was detected"},
      {"measurement": "fluorescence score (Avidin-AF), murine embryos", "setting": "[2]; 0.1 mg/mL, n = 21", "result": 2},
      {"measurement": "fluorescence score (Avidin-AF), murine embryos", "setting": "[2]; 1 mg/mL, n = 19", "result": 1},
      {"measurement": "fluorescence score (Avidin-AF), murine embryos", "setting": "[2]; 2 mg/mL, n = 19", "result": 1},
      {"measurement": "Number of beads attached to spermatozoa", "setting": "[3]; treatment A, incubation time 120 min, 30 min, with cross-linking", "result": "10-15 (with"},
      {"measurement": "Number of beads attached to spermatozoa", "setting": "[3]; treatment A, incubation time 120 min, Immediate", "result": "10-12"},
      {"measurement": "Number of beads attached to spermatozoa", "setting": "[3]; treatment B, incubation time 460 min, 30 min", "result": 8},
      {"measurement": "Number of beads attached to spermatozoa", "setting": "[3]; treatment C, incubation time 30 min, 30 min", "result": 3},
      {"measurement": "Number of beads attached to spermatozoa", "setting": "[3]; treatment C, incubation time 30 min, Immediate", "result": "1-3"},
      {"measurement": "Number of beads attached to spermatozoa", "setting": "[3]; treatment D, incubation time 10 min, 30 min", "result": 1},
      {"measurement": "Number of beads attached to spermatozoa", "setting": "[3]; treatment D, incubation time 10 min, Immediate", "result": 1},
      {"measurement": "retention of modified RBCs by streptavidin beads on magnet after washing", "setting": "[4]", "result": "retained"},
      {"measurement": "fluorescence score (Avidin-AF), RBCs", "setting": "[5]; dilution 0.001 mg/ml", "result": 0},
      {"measurement": "fluorescence score (Avidin-AF), RBCs", "setting": "[5]; dilution 0.01 mg/ml", "result": 1},
      {"measurement": "fluorescence score (Avidin-AF), RBCs", "setting": "[5]; dilution 0.1 mg/ml", "result": 2},
      {"measurement": "fluorescence score (Avidin-AF), RBCs", "setting": "[5]; dilution 1 mg/ml", "result": 4},
      {"measurement": "fluorescence score (Avidin-AF), RBCs, retention", "setting": "[5]; dilution 1 mg/ml, Day 14 of storage", "result": 4},
      {"measurement": "retention of modified group 0 RBCs by the magnet from mixture with unmodified group A RBCs", "setting": "[6]", "result": "Retention of the 0 group RBCs by the magnet was demonstrated"},
      {"measurement": "Mean Fluorescence", "setting": "[7]; 100 μg/mL, insertion time 30", "result": 3},
      {"measurement": "fluorescence of RL95-2 cell membrane, serum-free media", "setting": "[7]; construct 20, 100 and 500 μg/mL", "result": "homogenous intense fluorescent signal"},
      {"measurement": "fluorescence of RL95-2 cell membrane, serum-containing media", "setting": "[7]; same concentrations (20, 100 and 500 μg/mL)", "result": "weakened fluorescence"},
      {"measurement": "intensity of fluorescence versus insertion time", "setting": "[7]; serum-free media", "result": "increased with increasing insertion time"},
      {"measurement": "internalisation of Avidin Alexa Fluor 488 fluorescence", "setting": "[8]; incubated at 4° C.", "result": "No internalization was observed"},
      {"measurement": "internalisation of Avidin Alexa Fluor 488 fluorescence", "setting": "[8]; incubated at 37° C.", "result": "fluorescence starts to internalize within 4 hr"}
    ]}
  ]
}
